Results taken from ChEMBL document CHEMBL1201862, “PubChem BioAssay data set” (2004).
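Grown in 96-well plates, cells were treated for 48 hours with each compound at five concentrations. Insufficient inhibition: endpoint recorded as highest concentration tested. Abbreviation: GI50, concentration required for 50% inhibition of growth.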 Activity calls are given as the source filed them. Cut-off read from the data, not from the text of the source: active = GI50 up to about 1.1 µM and inactive = higher.

Columns and labels:
Test in all cases: growth of human tumour cells (NCI), 48 h
EKVX = system: EKVX
HL-60 = system: HL-60
HOP-62 = system: HOP-62
KM-20L2 = system: KM-20L2
KM12 = system: KM12
M19-MEL = system: M19-MEL
NCI-H226 = system: NCI-H226
SK-MEL-2 = system: SK-MEL-2
SNB-78 = system: SNB-78
XF498 = system: XF498
CCRF-CEM = system: CCRF-CEM
DU-145 = system: DU-145
Hs-578T = system: Hs-578T
MCF7 = system: MCF7
MDA-MB-231 = system: MDA-MB-231
NCI/ADR-RES = system: NCI/ADR-RES
SN12C = system: SN12C
T47D = system: T47D
HOP-18 = system: HOP-18
LXFL 529 = system: LXFL 529

Measured: GI50

CCCCOC(=O)CN1C(=O)c2ccccc2C1=O
inactive: EKVX > 100 µM | HL-60 > 100 µM | HOP-62 > 100 µM | KM-20L2 > 100 µM | KM12 > 100 µM | M19-MEL > 100 µM | NCI-H226 > 100 µM | SK-MEL-2 > 100 µM | SNB-78 > 100 µM | XF498 > 100 µM

CCC1=NC(C(F)(F)F)(C(F)(F)F)N=C(N2CCOCC2)O1
inactive: CCRF-CEM > 100 µM | DU-145 > 100 µM | EKVX > 100 µM | HL-60 > 100 µM | Hs-578T > 100 µM | KM12 > 100 µM | MCF7 > 100 µM | MDA-MB-231 > 100 µM | NCI/ADR-RES > 100 µM | SK-MEL-2 > 100 µM | SN12C > 100 µM | T47D > 100 µM

CCOc1ccc(C(C)c2cc3c(cc2OC)OCO3)cc1 (stereo not given)
active: HOP-62 0.323 µM | KM-20L2 0.199 µM | LXFL 529 0.429 µM | NCI-H226 0.207 µM | SN12C 0.484 µM | XF498 0.256 µM
inactive: HOP-18 2.2 µM | SNB-78 3.2 µM
